Reference: article PMC10363510 (Plant Communications, 2023)

Test system: SiAT1
Assay: HPLC product assay, Michaelis-Menten fit
Assay type: biochemical, Sesamum indicum
Conditions: read-out: apparent Km; 75 mM salidroside, 50 mM Tris-HCl pH 7.4, 30°C

SMILES | Km
CC(C)(COP(=O)(O)OP(=O)(O)OC[C@H]1O[C@@H](n2cnc3c(N)ncnc32)[C@H](O)[C@@H]1OP(=O)(O)O)[C@@H](O)C(=O)NCCC(=O)NCCSC(=O)/C=C/c1ccc(O)c(O)c1 [caffeoyl-CoA] | 1.13 ± 0.42 µM
CC(C)(COP(=O)(O)OP(=O)(O)OC[C@H]1O[C@@H](n2cnc3c(N)ncnc32)[C@H](O)[C@@H]1OP(=O)(O)O)[C@@H](O)C(=O)NCCC(=O)NCCSC(=O)/C=C/c1ccc(O)cc1 [p-coumaroyl-CoA] | 1.66 ± 0.39 µM
